Literature values as cited in PMC7796460, “Relation of Metal-Binding Property and Selective Toxicity of 8-Hydroxyquinoline Derived Mannich Bases Targeting Multidrug Resistant Cancer Cells” (Cancers, 2021).

Set-up: method as in PMID 30460942
Details: copper(II) complex of the ligand; cited from earlier work

## Oc1c(CNCc2ccccc2F)cc(Cl)c2cccnc12 [Compound Q-4, 5-chloro-7-((2-fluorobenzylamino)methyl)quinolin-8-ol]
  pKa CuLH (logβCuLH − logβCuL): 5.91
